Assay results from PubChem BioAssay AID248 (DTP/NCI, 2004).
Inconclusive results and toxic doses are left out. Cut-off read from the data, not from the text of the source: active = T/C of 150% or more; inactive = T/C below 125%.

Test system: L1210 leukemia ip in BDF1 mice, survival T/C
Test: NCI In Vivo Anticancer Drug Screen. Data for tumor model L1210 Leukemia (intraperitoneal) in B6D2F1 (BDF1) mice
Details: endpoint: mean survival time, higher = longer survival
Procedure, shortened: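 In this screen, tumor-bearing mice given compound are compared to those given vehicle, and their survival values are reported as a treated-to-control quotient.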

[1] = dose: 100.0 mg/kg/injection, schedule: Q04DX003 (ip), vehicle: Klucel (hydroxypropylcellulose) (HPC)
[2] = dose: 100.0 mg/kg/injection, schedule: Q01DX009 (ip), vehicle: Klucel (hydroxypropylcellulose) (HPC)
[3] = dose: 100.0 mg/kg/injection, schedule: Q01DX001 (ip), vehicle: saline
[4] = dose: 200.0 mg/kg/injection, schedule: Q01DX001 (ip), vehicle: saline
[5] = dose: 400.0 mg/kg/injection, schedule: Q01DX001 (ip), vehicle: saline
[6] = dose: 100.0 mg/kg/injection, schedule: Q04DX003 (ip), vehicle: saline

Measured: T/C

CCCCCCCCCCCCCCCCC(=O)CC
inactive: [1] 96 % of control | dose: 200.0 mg/kg/injection, schedule: Q04DX003 (ip), vehicle: Klucel (hydroxypropylcellulose) (HPC) 91 % of control | dose: 400.0 mg/kg/injection, schedule: Q04DX003 (ip), vehicle: Klucel (hydroxypropylcellulose) (HPC) 92 % of control

CN(C)CCC(N)c1cccc2ccccc12 (stereo not drawn)
inactive: dose: 25.0 mg/kg/injection, schedule: Q04DX002 (ip), vehicle: saline with Tween-80 91 % of control | dose: 50.0 mg/kg/injection, schedule: Q04DX002 (ip), vehicle: saline with Tween-80 116 % of control | dose: 100.0 mg/kg/injection, schedule: Q04DX002 (ip), vehicle: saline with Tween-80 98 % of control

O=S(=O)(Cl)c1cc(Cl)ccc1Cl
inactive: dose: 25.0 mg/kg/injection, schedule: Q01DX009 (ip), vehicle: Klucel (hydroxypropylcellulose) (HPC) 95 % of control | dose: 50.0 mg/kg/injection, schedule: Q01DX009 (ip), vehicle: Klucel (hydroxypropylcellulose) (HPC) 98 % of control | [2] 97 % of control

CC1(C)C(=O)N(Br)C(=O)N1Br
inactive: dose: 12.5 mg/kg/injection, schedule: Q04DX003 (ip), vehicle: Klucel (hydroxypropylcellulose) (HPC) 92 % of control | dose: 25.0 mg/kg/injection, schedule: Q04DX003 (ip), vehicle: Klucel (hydroxypropylcellulose) (HPC) 103 % of control | dose: 50.0 mg/kg/injection, schedule: Q04DX003 (ip), vehicle: Klucel (hydroxypropylcellulose) (HPC) 103 % of control

O=C1OC2c3ccccc3C3CC(=O)C2C13 (stereo not drawn)
inactive: dose: 50.0 mg/kg/injection, schedule: Q01DX001 (ip), vehicle: saline 98 % of control | [3] 104 % of control | [4] 98 % of control | [5] 96 % of control

c1ccc2c(c1)CCc1ccccc1N=N2
inactive: dose: 100.0 mg/kg/injection, schedule: Q01DX001 (ip), vehicle: Klucel (hydroxypropylcellulose) (HPC) 96 % of control | dose: 200.0 mg/kg/injection, schedule: Q01DX001 (ip), vehicle: Klucel (hydroxypropylcellulose) (HPC) 92 % of control | dose: 400.0 mg/kg/injection, schedule: Q01DX001 (ip), vehicle: Klucel (hydroxypropylcellulose) (HPC) 94 % of control

CCOC(=O)CCC(C)(C#N)C(C#N)C(=O)OCC (stereo not drawn)
inactive: dose: 100.0 mg/kg/injection, schedule: Q01DX009 (ip), vehicle: saline sonified 97 % of control | dose: 100.0 mg/kg/injection, schedule: Q04DX003 (ip), vehicle: saline sonified 108 % of control | dose: 200.0 mg/kg/injection, schedule: Q01DX009 (ip), vehicle: saline sonified 110 % of control | dose: 200.0 mg/kg/injection, schedule: Q04DX003 (ip), vehicle: saline sonified 97 % of control | dose: 400.0 mg/kg/injection, schedule: Q01DX009 (ip), vehicle: saline sonified 100 % of control | dose: 400.0 mg/kg/injection, schedule: Q04DX003 (ip), vehicle: saline sonified 98 % of control

CC(=Nc1cc(C)c(C)cc1C)c1c(O)cc(C)oc1=O
inactive: [2] 93 % of control | dose: 100.0 mg/kg/injection, schedule: Q04DX002 (ip), vehicle: Klucel (hydroxypropylcellulose) (HPC) 98 % of control | dose: 200.0 mg/kg/injection, schedule: Q01DX009 (ip), vehicle: Klucel (hydroxypropylcellulose) (HPC) 98 % of control | dose: 200.0 mg/kg/injection, schedule: Q04DX002 (ip), vehicle: Klucel (hydroxypropylcellulose) (HPC) 98 % of control | dose: 400.0 mg/kg/injection, schedule: Q01DX009 (ip), vehicle: Klucel (hydroxypropylcellulose) (HPC) 87 % of control | dose: 400.0 mg/kg/injection, schedule: Q04DX002 (ip), vehicle: Klucel (hydroxypropylcellulose) (HPC) 98 % of control

Cc1ccc(Cl)c(Br)c1
inactive: [3] 94 % of control | [4] 96 % of control | [5] 107 % of control

CC(C)OC(=O)Cc1cccc2ccccc12
inactive: dose: 222.0 mg/kg/injection, schedule: Q01DX Z (ip), vehicle: saline 98 % of control | dose: 333.0 mg/kg/injection, schedule: Q01DX Z (ip), vehicle: saline 88 % of control | dose: 500.0 mg/kg/injection, schedule: Q01DX Z (ip), vehicle: saline 95 % of control

O=C1CCCCCCCCCC/C(=N/O)CCCO1
inactive: dose: 100.0 mg/kg/injection, schedule: Q01DX001 (ip), vehicle: saline with Tween-80 100 % of control | dose: 200.0 mg/kg/injection, schedule: Q01DX001 (ip), vehicle: saline with Tween-80 92 % of control | dose: 400.0 mg/kg/injection, schedule: Q01DX001 (ip), vehicle: saline with Tween-80 89 % of control

CN(C)CCSC(CO)c1ccccc1 (stereo not drawn)
inactive: dose: 100.0 mg/kg/injection, schedule: Q01DX001 (ip), vehicle: carboxymethylcellulose (CMC) 96 % of control | dose: 200.0 mg/kg/injection, schedule: Q01DX001 (ip), vehicle: carboxymethylcellulose (CMC) 89 % of control | dose: 400.0 mg/kg/injection, schedule: Q01DX001 (ip), vehicle: carboxymethylcellulose (CMC) 94 % of control

CC(=O)Nc1cccc(-c2ccccc2Cl)c1
inactive: [3] 93 % of control | [4] 96 % of control | [5] 98 % of control

CCN(CC)c1ccc(/C=C/C=O)cc1
inactive: dose: 50.0 mg/kg/injection, schedule: Q01DX009 (ip), vehicle: gum acacia 103 % of control | dose: 100.0 mg/kg/injection, schedule: Q01DX009 (ip), vehicle: gum acacia 103 % of control | dose: 100.0 mg/kg/injection, schedule: Q04DX003 (ip), vehicle: gum acacia 93 % of control | dose: 200.0 mg/kg/injection, schedule: Q01DX009 (ip), vehicle: gum acacia 91 % of control | dose: 200.0 mg/kg/injection, schedule: Q04DX003 (ip), vehicle: gum acacia 96 % of control

OCC(O)C(O)C(O)C(O)C(O)CO (stereo not drawn)
inactive: [3] 98 % of control | dose: 100.0 mg/kg/injection, schedule: Q01DX009 (ip), vehicle: saline with Tween-80 96 % of control | [6] 94 % of control | [4] 106 % of control | dose: 200.0 mg/kg/injection, schedule: Q01DX009 (ip), vehicle: saline with Tween-80 110 % of control | dose: 200.0 mg/kg/injection, schedule: Q04DX003 (ip), vehicle: saline 97 % of control | [5] 95 % of control | dose: 400.0 mg/kg/injection, schedule: Q01DX009 (ip), vehicle: saline with Tween-80 90 % of control | dose: 400.0 mg/kg/injection, schedule: Q04DX003 (ip), vehicle: saline 106 % of control

COc1cc(/C=N/NC(=O)C(=O)N/N=C/c2cc(OC)c(OC)c(OC)c2)cc(OC)c1OC
inactive: dose: 75.0 mg/kg/injection, schedule: Q01DX001 (ip), vehicle: other 94 % of control | dose: 150.0 mg/kg/injection, schedule: Q01DX001 (ip), vehicle: other 90 % of control | dose: 300.0 mg/kg/injection, schedule: Q01DX001 (ip), vehicle: other 89 % of control

COC1C=CC=CC=C1
inactive: dose: 15.0 mg/kg/injection, schedule: Q01DX009 (ip), vehicle: saline with Tween-80 108 % of control | dose: 30.0 mg/kg/injection, schedule: Q01DX009 (ip), vehicle: saline with Tween-80 113 % of control | dose: 60.0 mg/kg/injection, schedule: Q01DX009 (ip), vehicle: saline with Tween-80 103 % of control

CSc1nnc(-c2cccs2)s1
inactive: [1] 98 % of control

S=C(NCc1ccccc1)Nc1ncn[nH]1
inactive: dose: 25.0 mg/kg/injection, schedule: Q01DX009 (ip), vehicle: saline 100 % of control | dose: 25.0 mg/kg/injection, schedule: Q04DX003 (ip), vehicle: saline 92 % of control | dose: 50.0 mg/kg/injection, schedule: Q01DX009 (ip), vehicle: saline 94 % of control | dose: 50.0 mg/kg/injection, schedule: Q04DX003 (ip), vehicle: saline 92 % of control | dose: 100.0 mg/kg/injection, schedule: Q01DX009 (ip), vehicle: saline 90 % of control | [6] 92 % of control
